Measurements as given in patent publication US8318638B2, “Plant activator” (Shiseido Company, Ltd., priority 1999, dated 2012).

Key:
Eustoma russellianum = experiment: Growth promotion effect on Eustoma russellianum; assay type: in vivo
chrysanthemum = experiment: Growth promotion effect on chrysanthemum; assay type: in vivo; conditions: 80 μM aqueous solution, five consecutive days then once a week for six weeks; four months after the last spraying; FIG. 7
Description: Two weeks after seeding of chrysanthemum, spraying of an 80 μm specific ketol fatty acid (I) aqueous solution was carried out for five consecutive days. Furthermore, three months after the start of the test, spraying of an 80 μM specific ketol fatty acid (I) aqueous solution was carried out for six weeks (once a week). Bolting was not observed at a nutrition growth stage of the chrysanthemum. Four months after the last spraying, the plant width was measured.

geranium = experiment: Growth promotion effect on geranium; assay type: in vivo; conditions: 80 μM aqueous solution, five consecutive days then once a week for six weeks; mottled and non-mottled leaf types; five-and-a-half months after last spraying; FIG. 8
Description: Two weeks after seeding of geranium, spraying of an 80 μM specific ketol fatty acid (I) aqueous solution was carried out for five consecutive days. Furthermore, three months after the start of the test, spraying of an 80 μM specific ketol fatty acid (I) aqueous solution was carried out for six weeks (once a week). Two types of geranium; i.e., geranium having mottled leaves and geranium having leaves of no mottles, were subjected to the test. Five-and-a-half months after the last spraying, the size of the leaves was measured.

Begonia sempaflorens = experiment: Growth promotion effect on Begonia sempaflorens; assay type: in vivo; conditions: 80 μm aqueous solution, five consecutive days then once a week for six weeks; four months after last spraying; FIG. 10
Description: Two weeks after seeding of Begonia sempaflorens, spraying of an 80 μm specific ketol fatty acid (I) aqueous solution was carried out for five consecutive days. Furthermore, three months after the start of the test, spraying of an 80 μm specific ketol fatty acid (I) aqueous solution was carried out for six weeks (once a week). Four months after the last spraying, the leave size was measured.

[1] = tested on: Dianthus caryophyllus (feeling scarlet); experiment: Growth promotion effect on Dianthus caryophyllus; assay type: in vivo; conditions: 100 μm aqueous solution sprayed once, 5 mL per plant; FIG. 11
Description: Seedlings of Dianthus caryophyllus (feeling scarlet) were planted in early October, and then grown by means of a customary method. In mid-April of the next year, spraying of a 100 μm specific ketol fatty acid (I) aqueous solution was carried out (5 mL per plant), and then the height of the plants was measured.

Oryza sativa L. = experiment: Growth controlling effect on Oryza sativa L. in paddy field (spraying); assay type: in vivo
Description: (2) Seedlings of Oryza sativa L. were grown in a seedbed in a manner similar to that described in (1), except that the seedlings were immersed in ion-exchange water at 10° C. for 15 days, without application of specific ketol fatty acid (I) described above in (1). Subsequently, the resultant seedlings which had been divided into five groups, each group containing three subgroups (only control group containing four subgroups) and each subgroup containing 16 seedlings, were exposed to the outside environment. Immediately after this exposure, spraying of specific ketol fatty acid (I) was carried out (0 ppm for a first group (control group), 25 ppm for second and third groups, 50 ppm for fourth and fifth groups). Thirty days after the spraying, the seedlings were planted in a paddy field, and additional spraying of specific ketol fatty acid (I) (25 ppm) was carried out for two groups; i.e., the third group (total amount of the acid (I): 25+25 ppm) and the fifth group (total amount of the acid (I): 50+25 ppm). Subsequently, the seedlings of the Oryza sativa L. were grown in the paddy field by means of a customary method. Forty-one days after the above planting, in each group, the plant height and the number of stems per plant (at a section at which four seedlings were planted) were measured, and then averaged.

Seeds of lettuce = experiment: Dry stress suppressive effect on lettuce seeds (germination); assay type: in vivo; conditions: for Number of germinated seeds: 50 seeds per group; for Germination rate (%: n = 50): seeds immersed 72 hours, dried in air 48 hours
Description: Seeds of lettuce (50 seeds per test group) were immersed in specific ketol fatty acid (I) aqueous solutions [concentration: 2 μM, 10 μM, 20 μM, and 0 μM (control)] for 72 hours, and dried in air for 48 hours. The resultant seeds were disposed on water-containing filter paper, and allowed to germinate. In each test group, germination rate—percentage (%) of germinated seeds with respect to the entirety of seeds—was obtained.

[2] = tested on: hyphae of P. citrinopileatus; experiment: Effect of proliferating hyphae of P. citrinopileatus Sing.; assay type: cell-based, Pleurotus citrinopileatus Sing.; conditions: 10 μM, 30 μM, 100 μm in potato-dextrose-agar medium; 37° C.; FIG. 15
Description: A potato-dextrose-agar culture medium was sterilized by use of an autoclave. After the medium was cooled to a temperature at which the agar was not solidified, a 1 mM specific ketol fatty acid (I) aqueous solution which had been sterilized by use of a membrane filter was added to the medium, to thereby prepare four culture media; i.e., a culture medium containing 0 μM of the fatty acid (I), a culture medium containing 10 μM of the fatty acid (I), a culture medium containing 30 μM of the fatty acid (I), and a culture medium containing 100 μm of the fatty acid (I). Each of the culture media was solidified in a 10-cm plate, and then hyphae of P. citrinopileatus (one platinum loop) was inoculated on the medium. Subsequently, the hyphae were cultured at 37° C., and proliferation of the hyphae was observed (10 plates for each group). Proliferation of the hyphae was evaluated on the basis of the average of the diameters of the proliferated hyphae on the plate.

[3] = tested on: carpophores of Lentinus edodes; experiment: Growth promotion effect on carpophore of Lentinus edodes (Berk.) Singer; assay type: in vivo; conditions: 5 mL per piece, five days culture at 18° C.
Description: Wood (Quercus serrata) containing hyphae of Lentinus edodes was cut into pieces having a length of about 15 cm, and the pieces were immersed in 10° C. water for 24 hours, after which the pieces were allowed to stand in a container of high humidity. Subsequently, specific ketol fatty acid (I) aqueous solutions (concentration: 0 μm, 3 μM, 30 μm, and 100 μM) were applied through spraying to the resultant pieces (six pieces for each group). Each solution was applied to each group (5 mL for each piece). Subsequently, the carpophores of Lentinus edodes were cultured in the same container at 18° C. under weak light irradiation. This culture was continued for five days, and then growth of the carpophores of Lentinus edodes was observed. FIG. 16 is a photograph showing the carpophores of Lentinus edodes cultured in the groups (note: {circumflex over (1)} application of the specific ketol fatty acid (I) (0 μM), (2) (3 μM), (3). (30 μM), and (4) (100 μM)). The average of the carpophores per piece was 0 in the 0 μM application group, 0.17 in the 3 μM application group, 1.0 in the 30 μM application group, and 1.0 in the 100 μM application group.

[4] = fifth group: 50+25 ppm sprayed, 41 days after planting
[5] = fourth group: 50 ppm sprayed, 41 days after planting
[6] = second group: 25 ppm sprayed, 41 days after planting
[7] = third group: 25+25 ppm sprayed, 41 days after planting

Structure (SMILES): CC/C=C\C/C=C\CC(=O)C(O)CCCCCCCC(=O)O (stereo not drawn) [specific ketol fatty acid (I), 9-hydroxy-10-oxo-12(Z),15(Z)-octadecadienoic acid]
- bolting (Eustoma russellianum; 50 μm aqueous solution sprayed to rosette leaves five consecutive days, three months after seeding): bolting was observed immediately after the spraying
- plant width (Eustoma russellianum; 50 μm aqueous solution, observed for 48 days): did not increase as had been expected
- plant height (Eustoma russellianum; 50 μm aqueous solution, observed for 48 days, FIG. 4): continued to increase 48 days after observation of growth
- plant width (chrysanthemum): increased significantly
- size of the leaves (geranium): growth of the leaves of these two types is promoted
- leave size (Begonia sempaflorens): growth of the leaves is promoted
- height of the plants [1]: growth of the Dianthus caryophyllus plant was promoted
- plant height, difference between groups incl. control (Oryza sativa L.; 25 to 50+25 ppm, 41 days after planting): significant difference was not observed
- number of stems per plant greater than control group (Oryza sativa L.; each of the second through fifth groups): about 10%
- number of stems per plant (Oryza sativa L.; [4]): 37
- plant height (Oryza sativa L.; [4]): 58 cm
- number of stems per plant (Oryza sativa L.; [5]): 38
- plant height (Oryza sativa L.; [5]): 58 cm
- number of stems per plant (Oryza sativa L.; [6]): 38
- plant height (Oryza sativa L.; [6]): 57 cm
- number of stems per plant (Oryza sativa L.; [7]): 39
- plant height (Oryza sativa L.; [7]): 57 cm
- Number of germinated seeds (Seeds of lettuce; 2 μM): 43
- Germination rate (%: n = 50) (Seeds of lettuce; 2 μM): 86%
- Number of germinated seeds (Seeds of lettuce; 10 μM): 49
- Germination rate (%: n = 50) (Seeds of lettuce; 10 μM): 98%
- Number of germinated seeds (Seeds of lettuce; 20 μM): 45
- Germination rate (%: n = 50) (Seeds of lettuce; 20 μM): 90%
- degree of proliferation of the hyphae (average diameter on plate) [2]: dependent on the concentration
- average of the carpophores per piece ([3]; 3 μM sprayed): 0.17
- average of the carpophores per piece ([3]; 30 μM sprayed): 1.0
- average of the carpophores per piece ([3]; 100 μM sprayed): 1.0
